The structures appear in SMILES notation. Bounds are passed on as bounds.

HCV RNA-dependent RNA polymerase (NS5B protein), sequence (P26663 2420-3010 limits assumed): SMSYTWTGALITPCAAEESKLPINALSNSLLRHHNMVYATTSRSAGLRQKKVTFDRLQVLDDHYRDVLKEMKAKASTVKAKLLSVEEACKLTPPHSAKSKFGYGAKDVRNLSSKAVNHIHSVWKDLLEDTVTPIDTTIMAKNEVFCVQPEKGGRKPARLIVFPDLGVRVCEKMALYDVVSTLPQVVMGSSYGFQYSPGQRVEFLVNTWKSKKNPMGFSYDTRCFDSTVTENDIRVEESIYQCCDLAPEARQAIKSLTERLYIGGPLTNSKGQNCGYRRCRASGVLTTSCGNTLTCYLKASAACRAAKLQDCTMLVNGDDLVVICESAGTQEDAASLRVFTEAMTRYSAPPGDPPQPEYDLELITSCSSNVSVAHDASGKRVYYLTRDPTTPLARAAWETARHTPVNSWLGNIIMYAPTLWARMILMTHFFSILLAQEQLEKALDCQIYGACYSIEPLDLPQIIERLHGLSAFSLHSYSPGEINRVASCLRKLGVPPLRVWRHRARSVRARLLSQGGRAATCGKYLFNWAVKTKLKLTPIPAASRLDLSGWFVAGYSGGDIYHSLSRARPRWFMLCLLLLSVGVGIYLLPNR

This assay has as its target HCV RNA-dependent RNA polymerase (NS5B protein) (Hepatitis C virus genotype 1b, UniProt P26663). Description: In vitro HCV RNA-dependent RNA polymerase assay (Assay 1, polyA/oligo dT, 32P-UTP incorporation). As to conditions: purified recombinant HCV NS5B, homopolymeric template/primer polyA/oligo dT; read-out: RNA pol Assay1 IC50. It is filed as biochemical. The method, then:
Compounds were evaluated using an in vitro polymerase assay containing purified recombinant HCV RNA-dependent RNA polymerase (NS5B protein). HCV NS5B was expressed in insect cells using a recombinant baculovirus as vector. The experimental procedures used for the cloning, expression and purification of the HCV NS5B protein are described below. Follows, are details of the RNA-dependent RNA polymerase assays used to test the compounds.
The cDNA encoding the entire NS5B protein of HCV-Bk strain, genotype 1b, was amplified by PCR using the primers NS5Nhe5′ (5′-[…]-3′) (SEQ ID NO: 1) and XhoNS53′ (5′-[…]-3′) (SEQ ID NO: 2) and the plasmid pCD 3.8-9.4 as template (Tomei et al, 1993). NS5Nhe5′ and XhoNS53′ contain two NheI and XhoI sites (underlined sequences), respectively, at their 5′ end. The amplified DNA fragment was cloned in the bacterial expression plasmid pET-21b (Novagen) between the restriction sites NheI and XhoI, to generate the plasmid pET/NS5B. This plasmid was later used as template to […] the NS5B coding region, using the primers NS5B-H9 (5′-[…]-3′) (SEQ ID NO: 3) and NS5B-R4 (5′-[…]-3′) (SEQ ID NO: 4). NS5B-H9 spans a region of 15 nucleotides in the plasmid pET-21b followed by the translation initiation codon (ATG) and […] corresponding to the 5′ end of the NS5B coding region (nt. 7590-7607 in the HCV sequence with the accession number M58335) . NS5B-R4 contains two BamHI sites (underlined) followed by 18 nucleotides corresponding to the region around the stop codon in the HCV genome (nt. 9365-9347). The amplified sequence, of 1.8 kb, was digested with NheI and BamHI and ligated to a predigested pBlueBacII plasmid (Invitrogen) . The resulting recombinant plasmid was designated pBac/NS5B. Sf9 cells were co-transfected with 3 μg of pBac/NS5B, together with 1 μg of linearized baculovirus DNA (Invitrogen), as described in the manufacturer's protocol. Following two rounds of plaque purification, an NS5B-recombinant baculovirus, BacNS5B, was isolated. The presence of the recombinant NS5B protein was determined by western blot analysis (Harlow and Lane, 1988) of BacNS5B-infected Sf9 cells, using a rabbit polyclonal antiserum (anti-NS5B) raised against a His-tagged version of the NS5B protein expressed in E. coil. Infections of Sf9 cells with this plaque purified virus were performed in one-liter spinner flasks at a cell density of 1.2×10^6 cells/ml and a multiplicity of infection of 5.
Sf9 cells were infected as described above. Sixty hours post-infection, cells were harvested then washed twice with phosphate buffer saline (PBS). Total proteins were solubilized as described in Lohmann et al. (1997) with some modifications. In brief, proteins were extracted in three steps, S1, S2, S3, using lysis buffers (LB) I, LB II and LB III (Lohmann et al, 1997). The composition of LBII was modified to contain 0.1% triton X-100 and 150 mM NaCl to reduce the amount of solubilized NS5B protein at this step. In addition, sonication of cell extracts was avoided throughout the protocol to preserve the integrity of the protein structure.
Soluble NS5B protein in the S3 fraction was diluted to lower the NaCl concentration to 300 mM, then it incubated batchwise with DEAE sepharose beads (Amersham-Pharmacia) for 2 hrs at 4° C., as described by Behrens et al. (1996). Unbound material was cleared by centrifugation for 15 min at 4° C., at 25000 rpm using a SW41 rotor (Beckman). The supernatant was further diluted to lower the NaCl concentration to 200 mM and subsequently loaded, with a flow rate of 1 ml/min, on a 5 ml HiTrap® heparin column (Amersham-Pharmacia) connected to an FPLC® system (Amersham-Pharmacia). Bound proteins were eluted in 1 ml fractions, using a continuous NaCl gradient of 0.2 to 1 M, over a 25 ml volume. […]
In general, IC50 refers to the point on the concentration scale where inhibition reaches its midpoint. As for `O=C(Nc1nc(-c2ccccc2)sc1C(=O)O)c1ccc(Cl)cc1Cl` [Compound #11, 4-(2,4-Dichloro-benzoylamino)-2-phenyl-thiazole-5-carboxylic acid], the half-inhibitory concentration (IC50) was in the range of 5 to 20 µM.
For `CN(C(=O)c1ccccc1Cl)c1nc(-c2ccccc2)sc1C(=O)O` [Compound #13, 4-[(2-Chloro-benzoyl)-methyl-amino]-2-phenyl-thiazole-5-carboxylic acid] the value was 5 to 20 µM; for `Cc1ccc(C(=O)N(c2nc(-c3ccccc3)sc2C(=O)O)C(C)C)cc1` [Compound #6, 4-[Isopropyl-(4-methyl-benzoyl)-amino]-2-phenyl-thiazole-5-carboxylic acid], less than 5 µM; for `CCN(C(=O)c1ccc(Cl)cc1Cl)c1nc(-c2ccccc2)sc1C(=O)O` [Compound #4, 4-[(2,4-Dichloro-benzoyl)-ethyl-amino]-2-phenyl-thiazole-5-carboxylic acid], less than 5 µM.
For `Cc1ccccc1S(=O)(=O)Nc1nc(-c2ccccc2)sc1C(=O)O` [Compound #5, 2-Phenyl-4-(toluene-2-sulfonylamino)-thiazole-5-carboxylic acid] the value was 5 to 20 µM; for `Cc1ccc(C(=O)Nc2nc(-c3ccccc3)sc2C(=O)O)c(C)c1` [Compound #8, 4-(2,4-Dimethyl-benzoylamino)-2-phenyl-thiazole-5-carboxylic acid], greater than 20 µM.
For `CC(C)N(C(=O)c1ccc(Cl)cc1Cl)c1nc(-c2ccccc2)sc1C(=O)O` [Compound #3, 4-[(2,4-Dichloro-benzoyl)-isopropyl-amino]-2-phenyl-thiazole-5-carboxylic acid] the value was less than 5 µM; for `CN(C(=O)c1ccc(Cl)cc1Cl)c1nc(-c2ccccc2)sc1C(=O)O` [Compound #2, 4-[(2,4-Dichloro-benzoyl)-methyl-amino]-2-phenyl-thiazole-5-carboxylic acid], less than 5 µM.
For the compound `O=C(Nc1nc(-c2ccccc2)sc1C(=O)O)c1ccc(Cl)cc1` [Compound #7, 4-(4-Chloro-benzoylamino)-2-phenyl-thiazole-5-carboxylic acid], the IC50 is greater than 20 µM.
Then `Cc1ccc(S(=O)(=O)Nc2nc(-c3ccccc3)sc2C(=O)O)c(C)c1` [Compound #9, 4-(2,4-Dimethyl-benzenesulfonylamino)-2-phenyl-thiazole-5-carboxylic acid], with 5 to 20 µM.
Then `Cc1ccc(C(=O)N(C)c2nc(-c3ccccc3)sc2C(=O)O)cc1` [Compound #1, 4-[Methyl-(4-methyl-benzoyl)-amino]-2-phenyl-thiazole-5-carboxylic acid], with less than 5 µM; and `Cc1ccc(C(=O)N(C)c2nc(N3CCOCC3)sc2C(=O)O)c(C)c1` [Compound #16, 4-[(2,4-DIMETHYL-BENZOYL)-METHYL-AMINO]-2-MORPHOLIN-4-YL-THIAZOLE-5-CARBOXYLIC ACID], with 5 to 20 µM; and `CN(C(=O)c1ccc(Cl)cc1)c1nc(-c2ccccc2)sc1C(=O)O` [Compound #14, 4-[(4-Chloro-benzoyl)-methyl-amino]-2-phenyl-thiazole-5-carboxylic acid], with less than 5 µM.
Take `Cc1ccc(S(=O)(=O)Nc2nc(-c3ccccc3)sc2C(=O)O)cc1` [Compound #10, 2-Phenyl-4-(toluene-4-sulfonylamino)-thiazole-5-carboxylic acid]: the IC50 is greater than 20 µM.
`O=C(Nc1nc(-c2ccccc2)sc1C(=O)O)c1ccc(Cl)cc1` [Compound #15]: the IC50 lay within 5 to 20 µM.
For `Cc1cccc(C(=O)Nc2nc(-c3ccccc3)sc2C(=O)O)c1` [Compound #12, 4-(3-Methyl-benzoylamino)-2-phenyl-thiazole-5-carboxylic acid] the value was greater than 20 µM.

(Values after patent US6936629B2, “Compounds and methods for the treatment or prevention of flavivirus infections” (ViroChem Pharma Inc., priority 2001, dated 2005).)
